Legend:
Assay type in all cases: in vivo, rat
[1] = test system: bleomycin-induced pulmonary fibrosis; test: Lung morphology following bleomycin-induced pulmonary fibrosis (histology, Masson's Trichrome collagen staining); settings: male Wistar rats, bleomycin 10 U/kg intratracheally; 50 mg/kg daily orally, days 1-21; histology 21 days after instillation; FIG. 1C
Description: (A) Effect of a representative compound on lung morphology following bleomycin-induced pulmonary fibrosis. All experiments were performed in accordance with German guidelines for animal welfare, performed by persons certified to work with animals and approved by the responsible authorities. Male Wistar rats were intratracheally injected with Bleomycin sulfate (10 U/kg body weight in 300 μl saline) or saline alone (saline control) using a catheter (0.5 mm internal diameter, 1.0 mm external diameter) through the nasal passage, following exposure to the anaesthetic Isofluorane for 5 minutes. The following day, the rats were orally treated with Example A (compound (134)) or saline suspended in 1 ml 0.1% Natrosol. Control rats were administered 1 ml 0.1% Natrosol (vehicle control). [table] 21 days following bleomycin instillation, the rats were killed with a lethal intraperitoneal injection of Narcoren™ (Pentobarbital Sodium, Rhone Merieux). The lungs were then removed, blotted dry and half was snap frozen in liquid nitrogen and stored at −80° C. The other half was fixed in 4% formalin for subsequent paraffin embedding and histology. The lung tissues fixed in 4% formalin were embedded into paraffin and 5 μm sections were cut using a microtome (Leica SM200R) and placed on poly-L-lysine coated slides. […] Collagen deposition was assessed using Masson's Trichrome staining.

[2] = test system: procollagen I gene expression; test: Expression of fibrotic marker gene procollagen I in lung following bleomycin-induced pulmonary fibrosis (real time PCR); settings: bleomycin-treated rats, 50 mg/kg daily, day 21, versus bleomycin + vehicle; FIG. 2
Description: (§1) All experiments were performed in accordance with German guidelines for animal welfare, performed by persons certified to work with animals and approved by the responsible authorities. Male Wistar rats were intratracheally injected with Bleomycin sulfate (10 U/kg body weight in 300 μl saline) or saline alone (saline control) using a catheter (0.5 mm internal diameter, 1.0 mm external diameter) through the nasal passage, following exposure to the anaesthetic Isofluorane for 5 minutes. The following day, the rats were orally treated with Example A (compound (134)) or saline suspended in 1 ml 0.1% Natrosol. Control rats were administered 1 ml 0.1% Natrosol (vehicle control).
(§2) 21 days following bleomycin instillation, the rats were killed with a lethal intraperitoneal injection of Narcoren™ (Pentobarbital Sodium, Rhone Merieux). The lungs were then removed, blotted dry and half was snap frozen in liquid nitrogen and stored at −80° C. The other half was fixed in 4% formalin for subsequent paraffin embedding and histology.
(§3) (B) Effect of a representative compound on expression of fibrotic marker genes following bleomycin-induced pulmonary fibrosis.
(§4) One part of the frozen lung tissue dedicated to investigation of gene expression was cut into small pieces using a sterile scalpel blade. […] The concentration of each sample was then measured using a spectrophotometer. […]

[3] = test system: fibronectin gene expression; test: Expression of fibrotic marker gene fibronectin in lung following bleomycin-induced pulmonary fibrosis (real time PCR); settings: bleomycin-treated rats, 50 mg/kg daily, day 21, versus bleomycin + vehicle; FIG. 3
Description: as §1, §2, §3, §4

## CN(C)Cc1ccc(N/C(=C2\C(=O)Nc3cc(F)ccc32)c2ccc(CCC(=O)O)cc2)cc1 [Example A, 3-Z-[1-(4-dimethylaminomethylanilino)-1-(4-(2-carboxyethyl)phenyl)methylene]-6-fluoro-2-indolinone]
[1]
  fibroblast infiltration or extracellular matrix deposition in lung: little or no fibroblast infiltration or extracellular matrix deposition has occurred
  lung fibrosis (lung morphology, collagen deposition staining): consistent, nearly complete reversal of lung fibrosis
[2]
  procollagen I gene expression in lung (normalized to 18S): significant (p≦0.0001) inhibition
[3]
  fibronectin gene expression in lung (normalized to 18S): significant (p≦0.0001) inhibition

— patent publication US20140128409A1, “MEDICAMENTS FOR THE TREATMENT OR PREVENTION OF FIBROTIC DISEASES” (BOEHRINGER INGELHEIM INTERNATIONAL GMBH, priority 2004, published 2014)
